According to article PMC8362065, “Easily Available, Amphiphilic Diiron Cyclopentadienyl Complexes Exhibit in Vitro Anticancer Activity in 2D and 3D Human Cancer Cells through Redox Modulation Triggered by CO Release” (Chemistry (Weinheim an Der Bergstrasse, Germany), 2021):

Assays:
[1] = system: thioredoxin reductase (TrxR); conditions: cell-free experiment (data not shown)
Text: It has recently emerged that the redox stress induced by some iron complexes might also be attributed to their ability to inhibit the selenoenzyme thioredoxin reductase (TrxR).

[2] = system: PSN‐1 pancreatic cancer cells; assay: Intracellular CO release, fluorescent CO probe; format: cell-based, human; conditions: PSN‐1 cells, 20 μM, 30 min, fluorescent probe (Figure 4B)
Protocol: (§1) Figure 4 Intracellular detection of iron and carbon monoxide. A) Cellular uptake in PSN‐1 and HEK293 cells; cells were incubated with 50 μM of complexes for 24 h, and the cellular iron content was detected by GFAAS analysis. B) Intracellular CO levels were determined by using a fluorescent probe (BioTracker Carbon Monoxide Probe 1 Live Cell Dye®, Merck, Germany) after 30 min of treatment of PSN‐1 or HEK293 cells with 20 μM [2C]CF3SO3 and [2D]CF3SO3, or 20 μM CORM‐401 as positive control. ** P<0.01, * P<0.05.
(§2) Additional studies were conducted in order to elucidate the mode of action underlying the cell killing effect of the newly synthesized diiron complexes in cancer cells. In particular, based on the evidence of their tendency to slowly release CO in aqueous media (see section on solubility, partition coefficient, stability in aqueous media), we evaluated the ability of the most performant complexes [2C]CF3SO3 and [2D]CF3SO3 to release carbon monoxide inside PSN‐1 pancreatic cancer cells and HEK293 noncancer cells. A fluorometric test was conducted over a short time interval (30 min) by means of a CO sensing dye (Figure 4B). […] The relatively fast release of carbon monoxide within the cell might be associated to the presence of a consistent amount and variety of biological substrates, which can quicken the formation of CO substitution diiron products. As a matter of fact, it is well documented that [2E–F]CF3SO3 are susceptible to replacement of one terminal CO ligand by suitable C‐, P‐, S‐ and N‐donors to give adducts of general formula [Fe2Cp2(CO)(L)(μ‐CO){μ‐CNR(Me)}]^0/+.[[15b], [16a], [20]] Although the nature of L in the cell context is far from being clarified, it is reasonable to speculate that CO release is readily operative via such substitution pathway. However, an acceleration of the route leading to the extensive decomposition of the diiron scaffold (elimination of three COs per complex), as observed in aqueous media, might also contribute.
(§3) Intracellular CO release. PSN‐1 cell (1×10^4) were seeded in 96‐well plates. After 24 h, cells were treated with 20 μM of tested complexes or CORM‐401 (Merck) for […] at 37 °C and followed by 30 min incubation with a fluorescent probe BioTracker Carbon Monoxide Probe 1 Live Cell Dye® (Merck). The intracellular fluorescence, indicative of CO accumulation in cells, was quantified using a VICTOR X3 (PerkinElmer) plate reader.

[3] = system: HEK293 noncancer cells; assay: Intracellular CO release, fluorescent CO probe; format: cell-based, human; conditions: 20 μM, 30 min, fluorescent probe (Figure 4B)
Protocol: as §1, §2, §3

[4] = system: PSN‐1 cells; assay: Mitochondrial membrane potential; format: cell-based, human; conditions: 24 h (Figure 5B)
Text: (§4) Iron is a redox active metal that can generate ROS in cells via the Fenton reaction, thus inducing cellular damage and ultimately leading to cell death.[40] […] Based on this premises, we evaluated the effects induced by the diiron complexes on the mitochondria activity and the cellular redox environment. More precisely, we investigated the ROS production and the alteration of the mitochondrial membrane potential. […] The time‐dependent ROS basal production is probably associated to more than one phenomenon. First of all, the progressive disruption of the diiron structure leads to the extrusion of the Fe^I centres, which are expected to subsequently convert into Fe^III (in fact, slow precipitation of iron(III) oxides has been recognized from water solution, see above). Otherwise, based on previous voltammetric measurements on [2E–F]CF3SO3,[41] oxidation of iron enclosed in the complex is out of the range of biologically relevant potentials. […]
(§5) Figure 5 Effects induced by compounds [2C]CF3SO3 and [2D]CF3SO3 at the mitochondrial level. […] The fluorescence of DCF was measured at λ ex=485 nm and λ em=527 nm. […] Fluorescence was estimated at λ ex=490 nm and λ em=590 nm. […]
Mitochondrial membrane potential (ΔΨ). […] Fluorescence intensity was estimated using a VICTOR X3 (PerkinElmer, USA) plate reader at λ ex=490 and λ em=590 nm. […]

[5] = system: PSN‐1 cells; assay: ROS production, CM-H2DCFDA fluorescence; format: cell-based, human; conditions: time-dependent (Figure 5A)
Text: as §4, with “above).” for “above). Otherwise, based on previous voltammetric measurements on [2E–F]CF3SO3,[41] oxidation of iron enclosed in the complex is out of the range of biologically relevant potentials.”
as §5
ROS production. The production of ROS was measured in PSN‐1 cells (10^4 per well) grown for 24 h in a 96‐well plate in RPMI medium without phenol red (Merck). […] Fluorescence increase was estimated by using λ ex=485 nm and λ em=527 nm in a VICTOR X3 (PerkinElmer) plate reader. […]

Substance | TrxR inhibition [1] | Intracellular CO levels [2] | Intracellular CO levels [3] | Cells with depolarized mitochondria (mitochondrial membrane potential) [4] | Cellular ROS production [5]
[Fe2Cp2(CO)2(μ‐CO){μ‐CNMe(4‐C6H4OMe)}]CF3SO3 [[2D]CF3SO3] | completely ineffective | effective in significantly release CO | lower levels of CO were detected | significant dose‐dependent increase of cells with depolarized mitochondria | substantial increase in cellular ROS production
[Fe2Cp2(CO)2(μ‐CO){μ‐CNMe(C6H11)}]X [[2C]CF3SO3] | completely ineffective | effective in significantly release CO | lower levels of CO were detected | significant dose‐dependent increase of cells with depolarized mitochondria | substantial increase in cellular ROS production
